Experimental data as given in publication PMC8298633, “Cannabis constituents interact at the drug efflux pump BCRP to markedly increase plasma cannabidiolic acid concentrations” (Scientific Reports, 2021).
“Also recorded” adds a separate entry of the source.

What was measured:
[1] = Pharmacokinetic study: plasma cannabinoids after single oral gavage of full-spectrum cannabis extract or individual cannabinoid; details: for Detection in plasma following oral administration of the full-spectrum extract / tmax / AUC / t1/2 / Cmax / Total plasma exposure in full-spectrum extract relative to individual compound, fold lower: mouse plasma; for Detection in plasma following oral administration of the full-spectrum extract: single oral dose of extract; for Total plasma exposure in full-spectrum extract relative to individual compound, fold lower: equivalent doses
Method: Drugs were administered by oral gavage in a volume of 5 mL/kg. Wildtype male and female mice (postnatal day 21–28, P21-28) received a single oral gavage of either the full-spectrum cannabis extract or an individual cannabinoid. Cannabinoid doses within the full-spectrum extract or as an individual cannabinoid were as follows in mg/kg: CBDA and Δ^9-THCA, 50; CBD, 25; Δ^9-THC, 15; CBC, 9; CBDVA and CBGA, 7; CBN, 2.5; CBG, 1.5; CBDV and Δ^9-THCV, < 1 (Fig. 1a). At selected time points (15–240 min), mice were anesthetized with isoflurane and whole blood was collected by cardiac puncture. Plasma was isolated by centrifugation (9000 g for 10 min, 4 °C) and stored at − 80 °C until assayed.
Concentrations of cannabinoids in plasma samples were quantified as described previously, [24], [58]. […] The organic layer was isolated by centrifugation (4000 g for 10 min) and evaporated to dryness with N2. Samples were reconstituted in acetonitrile and 0.1% formic acid in water (1:3.3, v/v) for supported-liquid extraction (SLE) with methyl tert-butyl ether (MTBE) using Biotage Isolute SLE+ columns (Uppsala, SWE). […] Quantification of cannabinoids was achieved by comparing samples to standards prepared with known amounts of drug.
Plasma concentrations at each time point were averaged and pharmacokinetic parameters were calculated by noncompartmental analysis. Elimination rate constants were determined by linear regression of the terminal component of the concentration–time curve using GraphPad Prism 8.2 (La Jolla, USA). The log-linear trapezoidal method was used to calculated total drug exposure (area under concentration–time curve) using equations described previously.

wildtype MDCK cells = test: Bidirectional transwell transport assay, wildtype MDCK cell monolayers; details: wildtype MDCK cells, 10 µM cannabinoid; for P (A > B): apical to basolateral
Method: (§1) We first aimed to determine whether the cannabinoids found in the full-spectrum cannabis extract were substrates of P-glycoprotein and BCRP by using MDCK cells expressing human P-glycoprotein or BCRP in vitro. Transwell assays were conducted to assess bidirectional transport of the cannabinoids detected in plasma following administration of the full-spectrum cannabis extract (CBD, CBDA, CBDVA, CBGA, Δ^9-THC and Δ^9-THCA), including the respective neutral compounds (CBDV and CBG) across wildtype, BCRP and P-glycoprotein MDCK cell monolayers. […] BCRP and P-glycoprotein preferentially transport substrates in the B > A direction.
(§2) Media in the donor chamber was then replaced with that containing 10 µM of an individual cannabinoid in the presence of either vehicle or inhibitor and returned to 37 °C. Aliquots (25 or 50 µL) were removed from the accepter chamber at 60, 120, 180 and 240 min.
(§3) Cannabinoids were analyzed as described above.

[2] = as above; details: dog, MDCK
Method: as §1, §2, §3

P-glycoprotein = P-glycoprotein (Homo sapiens, UniProt P08183); test: Bidirectional transwell substrate assay, MDCK cells expressing P-glycoprotein; details: for P (A > B) / P (B > A) / r (transport efflux ratio) / efflux ratio at 240 min, 10 µM: P-glycoprotein MDCK cells, 10 µM cannabinoid; for P (A > B): apical to basolateral; for P (B > A): basolateral to apical; for P-glycoprotein substrate status: human P-glycoprotein MDCK cells vs wildtype; for r (transport efflux ratio) / efflux ratio at 240 min, 10 µM: substrate threshold 2.5; for efflux ratio at 240 min, 10 µM: human, MDCK-MDR1, r (transport efflux ratio)
Chain of P-glycoprotein (P08183 whole entry): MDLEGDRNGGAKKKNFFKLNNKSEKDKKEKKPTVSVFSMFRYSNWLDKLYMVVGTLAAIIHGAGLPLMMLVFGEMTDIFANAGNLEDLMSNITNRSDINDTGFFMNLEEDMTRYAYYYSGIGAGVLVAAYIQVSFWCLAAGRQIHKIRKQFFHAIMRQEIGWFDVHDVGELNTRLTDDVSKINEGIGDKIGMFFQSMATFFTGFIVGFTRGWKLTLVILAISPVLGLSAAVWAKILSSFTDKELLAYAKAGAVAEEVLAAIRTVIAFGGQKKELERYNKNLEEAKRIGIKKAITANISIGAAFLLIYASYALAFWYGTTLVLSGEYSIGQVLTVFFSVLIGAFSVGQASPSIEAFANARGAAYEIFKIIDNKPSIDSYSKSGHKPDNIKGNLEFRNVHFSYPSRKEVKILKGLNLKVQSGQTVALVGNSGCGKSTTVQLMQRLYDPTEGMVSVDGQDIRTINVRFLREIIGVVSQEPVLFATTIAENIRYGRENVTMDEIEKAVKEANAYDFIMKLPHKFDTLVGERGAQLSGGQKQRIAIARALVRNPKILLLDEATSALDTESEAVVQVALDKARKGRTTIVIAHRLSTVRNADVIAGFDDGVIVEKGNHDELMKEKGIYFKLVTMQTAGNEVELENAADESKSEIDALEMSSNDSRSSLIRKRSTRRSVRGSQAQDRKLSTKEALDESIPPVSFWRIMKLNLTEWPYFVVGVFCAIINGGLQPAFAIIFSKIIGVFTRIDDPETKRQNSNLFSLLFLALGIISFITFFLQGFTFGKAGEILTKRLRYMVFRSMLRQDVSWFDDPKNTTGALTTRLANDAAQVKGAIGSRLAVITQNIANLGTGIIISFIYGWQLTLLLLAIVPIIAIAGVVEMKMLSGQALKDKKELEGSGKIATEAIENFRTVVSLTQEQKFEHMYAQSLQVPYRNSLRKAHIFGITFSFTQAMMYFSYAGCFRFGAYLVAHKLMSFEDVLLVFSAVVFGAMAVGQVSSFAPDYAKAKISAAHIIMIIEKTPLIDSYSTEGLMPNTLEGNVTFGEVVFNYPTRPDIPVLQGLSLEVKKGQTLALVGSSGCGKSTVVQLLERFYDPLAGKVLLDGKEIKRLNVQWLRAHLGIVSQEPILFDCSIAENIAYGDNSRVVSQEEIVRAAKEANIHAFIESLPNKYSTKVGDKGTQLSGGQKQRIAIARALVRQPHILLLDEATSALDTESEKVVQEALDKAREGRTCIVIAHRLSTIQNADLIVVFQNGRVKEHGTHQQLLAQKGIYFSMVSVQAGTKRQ
Method: as §1, §2, §3

BCRP [3] = target: T1, BCRP (Homo sapiens, UniProt Q9UNQ0); test: Bidirectional transwell substrate assay, MDCK cells expressing BCRP (with or without elacridar); details: for P (A > B): apical to basolateral; for P (B > A): basolateral to apical; for BCRP substrate status: human BCRP MDCK cells vs wildtype, with elacridar control; for efflux ratio at 240 min, 10 µM: human, r (transport efflux ratio)
T1 sequence (Q9UNQ0 1-655): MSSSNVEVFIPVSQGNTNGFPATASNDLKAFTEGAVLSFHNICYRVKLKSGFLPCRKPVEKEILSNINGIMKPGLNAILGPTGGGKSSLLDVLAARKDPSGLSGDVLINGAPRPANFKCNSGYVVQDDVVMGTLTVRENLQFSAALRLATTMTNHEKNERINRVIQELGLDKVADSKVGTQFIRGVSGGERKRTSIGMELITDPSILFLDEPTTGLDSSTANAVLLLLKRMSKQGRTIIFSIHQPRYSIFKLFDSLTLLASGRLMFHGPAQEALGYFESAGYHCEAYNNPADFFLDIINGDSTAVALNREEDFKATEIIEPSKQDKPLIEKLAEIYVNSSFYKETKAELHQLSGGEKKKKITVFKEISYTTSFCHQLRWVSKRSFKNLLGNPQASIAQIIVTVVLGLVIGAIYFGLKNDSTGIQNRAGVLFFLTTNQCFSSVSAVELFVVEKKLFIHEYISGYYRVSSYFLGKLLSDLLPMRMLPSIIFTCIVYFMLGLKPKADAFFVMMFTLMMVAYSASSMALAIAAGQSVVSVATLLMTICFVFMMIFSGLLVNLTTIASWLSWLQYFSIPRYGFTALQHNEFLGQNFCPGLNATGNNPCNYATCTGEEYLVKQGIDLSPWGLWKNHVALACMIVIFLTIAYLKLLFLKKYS
Method: as §1, §2, §3

BCRP [4] = target: T1, BCRP; test: Inhibition of BCRP-mediated transport of prazosin (transwell, BCRP MDCK cells)
BCRP [5] = target: T1, BCRP; test: Inhibition of BCRP-mediated transport of CBDA by cannabinoids (transwell, BCRP MDCK cells); details: BCRP MDCK cells
Method: Cannabinoids were tested at 10 µM. […] Data are expressed as means ± SEM, with n = 4 per time point. […] Schematic created using BioRender.com.
as §3

[6] = BCRP MDCK cells, 10 µM cannabinoid
[7] = BCRP MDCK cells, 10 µM cannabinoid, substrate threshold 1.5
[8] = oral, administered as individual cannabinoid, doses mg/kg: CBD 25, CBDA 50, CBDVA 7, CBGA 7, THC 15, THCA 50
[9] = oral, administered as individual cannabinoid, doses mg/kg: CBD 25, CBDA 50, CBDVA 7, THC 15, THCA 50
[10] = oral, administered in full-spectrum extract, doses mg/kg: CBD 25, CBDA 50, CBDVA 7, CBGA 7, THC 15, THCA 50

SMILES	Detection in plasma following oral administration of the full-spectrum extract [1]	P (A > B) (wildtype MDCK cells)	Papp B→A at 240 min, 10 µM [2]	P (A > B) (P-glycoprotein)	P (B > A) (P-glycoprotein)	P-glycoprotein substrate status (P-glycoprotein)	P (A > B) (BCRP [3]; [6])	P (B > A) (BCRP [3]; [6])	BCRP substrate status (BCRP [3])	Total plasma exposure in full-spectrum extract relative to individual compound, fold lower ([1]; oral)	further results
CCCc1cc(O)c2c(c1)OC(C)(C)[C@@H]1CCC(C)=C[C@@H]21 [Δ^9-THCV, Δ^9-tetrahydrocannabivarin]	not detected	–	–	–	–	–	–	–	–	–	–
CCCCCc1cc(O)c(C/C=C(\C)CCC=C(C)C)c(O)c1 [CBG, cannabigerol]	not detected	12 ± 5 × 10^−5 cm/s	100 ± 30 ×10⁻⁶ cm/s	19 ± 5 × 10^−5 cm/s	14 ± 2 × 10^−5 cm/s	not P-glycoprotein substrates	47 ± 9 × 10^−5 cm/s	53 ± 10 × 10^−5 cm/s	weak substrates of BCRP	–	efflux ratio at 240 min, 10 µM [2]: 0.8 ± 0.5; efflux ratio at 240 min, 10 µM (BCRP [3]; [7]): 1.1 ± 0.3; Effect on BCRP-mediated transport of prazosin (BCRP [4]; 10 µM, compared to vehicle): not prazosin transport
C=C(C)[C@@H]1CCC(C)=C[C@H]1c1c(O)cc(CCC)c(C(=O)O)c1O [CBDVA, cannabidivarinic acid]	detected	22 ± 3 × 10^−5 cm/s	–	14 ± 4 × 10^−5 cm/s	22 ± 2 × 10^−5 cm/s	not P-glycoprotein substrates	24 ± 9 × 10^−5 cm/s	47 ± 6 × 10^−5 cm/s	BCRP substrates	2–4 ×	r (transport efflux ratio) (wildtype MDCK cells): 1.1 ± 0.2; P (B > A) (wildtype MDCK cells; basolateral to apical): 25 ± 2 × 10^−5 cm/s; r (transport efflux ratio) (P-glycoprotein): 1.6 ± 0.3; Effect on BCRP-mediated transport of CBDA (BCRP [5]; 10 µM, compared to vehicle): Neither CBD nor CBDVA affected CBDA transport via BCRP; P (A > B) of CBDA in the presence of inhibitor (BCRP [5]; cannabinoids tested at 10 µM): 8 ± 1 × 10^−5 cm/s; P (B > A) of CBDA in the presence of inhibitor (BCRP [5]; cannabinoids tested at 10 µM): 63 ± 4 × 10^−5 cm/s; r (transport efflux ratio) (BCRP [3]; [7]): 2.0 ± 0.4; tmax [1, 8]: 0.25 h; AUC [1, 9]: 7459 µg·min/mL; t1/2 [1, 9]: 2.5 h; Cmax ([1]; oral, administered as individual cannabinoid, doses mg/kg: CBDA 50, CBDVA 7, CBGA 7): 26000 ± 2000 ng/mL; AUC [1, 10]: 3844 µg·min/mL; t1/2 [1, 10]: 2 h; tmax [1, 10]: 1 h; Cmax ([1]; oral, administered in full-spectrum extract, doses mg/kg: CBDA 50, CBDVA 7, CBGA 7): 11000 ± 1000 ng/mL; P (A > B) of prazosin in the presence of inhibitor (BCRP [4]; 10 µM inhibitor, 1 µM prazosin): 15 ± 3 × 10^−2 cm/s; P (B > A) of prazosin in the presence of inhibitor (BCRP [4]; 10 µM inhibitor, 1 µM prazosin): 201 ± 4 × 10^−2 cm/s
CCCCCc1cc(O)c2c(c1)OC(C)(CCC=C(C)C)C=C2 (stereo not shown) [CBC]	not detected	–	–	–	–	–	–	–	–	–	–
C=C(C)[C@@H]1CCC(C)=C[C@H]1c1c(O)cc(CCC)cc1O [CBDV, cannabidivarin]	not detected	43 ± 5 × 10^−5 cm/s	440 ± 50 ×10⁻⁶ cm/s	30 ± 8 × 10^−5 cm/s	34 ± 3 × 10^−5 cm/s	not substrates of either BCRP or P-glycoprotein	63 ± 14 × 10^−5 cm/s	90 ± 9 × 10^−5 cm/s	not considered a substrate of BCRP; also recorded: not substrates of either BCRP or P-glycoprotein	–	efflux ratio at 240 min, 10 µM [2]: 1 ± 0.2; efflux ratio at 240 min, 10 µM (P-glycoprotein): 1.1 ± 0.3; efflux ratio at 240 min, 10 µM (BCRP [3]; [7]): 1.4 ± 0.2
CCCCCc1cc(O)c(C/C=C(\C)CCC=C(C)C)c(O)c1C(=O)O [CBGA, cannabigerolic acid]	detected	–	10 ± 10 ×10⁻⁶ cm/s	5 ± 2 × 10^−5 cm/s	3 ± 1 × 10^−5 cm/s	not substrates of either BCRP or P-glycoprotein	–	5 ± 1 × 10^−5 cm/s	not substrates of either BCRP or P-glycoprotein	2–4 ×	efflux ratio at 240 min, 10 µM (P-glycoprotein): 0.7 ± 0.5; AUC ([1]; both, mouse, plasma, po, 7 mg/kg, AUC (does not include terminal phase), administered as individual cannabinoid, CBGA 7 mg/kg): 8670 µg·min/mL; AUC ([1]; both, mouse, plasma, po, AUC, oral, administered in full-spectrum extract, doses mg/kg: CBD 25, CBDA 50, CBDVA 7, CBGA 7, THC 15, THCA 50): 5170 µg·min/mL; Cmax ([1]; both, mouse, plasma, po, Cmax, oral, administered as individual cannabinoid, doses mg/kg: CBDA 50, CBDVA 7, CBGA 7): 48000 ± 2000 ng/mL; Cmax ([1]; both, mouse, plasma, po, Cmax, oral, administered in full-spectrum extract, doses mg/kg: CBDA 50, CBDVA 7, CBGA 7): 12000 ± 1000 ng/mL; half-life ([1]; both, mouse, plasma, po, t1/2, mouse plasma, oral, administered in full-spectrum extract, doses mg/kg: CBD 25, CBDA 50, CBDVA 7, CBGA 7, THC 15, THCA 50): 4.97 h; tmax ([1]; both, mouse, plasma, po, tmax, oral, administered as individual cannabinoid, doses mg/kg: CBD 25, CBDA 50, CBDVA 7, CBGA 7, THC 15, THCA 50): 2 h; tmax ([1]; both, mouse, plasma, po, tmax, oral, administered in full-spectrum extract, doses mg/kg: CBD 25, CBDA 50, CBDVA 7, CBGA 7, THC 15, THCA 50): ≤ 1 h
CCCCCc1cc(O)c2c(c1)OC(C)(C)c1ccc(C)cc1-2 [CBN, cannabinol]	not detected	–	–	–	–	–	–	–	–	–	–
CCCCCc1cc2c(c(O)c1C(=O)O)C1C=C(C)CCC1C(C)(C)O2 (stereo not shown) [Δ^9-THCA, Δ^9-tetrahydrocannabinolic acid]	detected	–	–	17 ± 5 × 10^−5 cm/s	8 ± 3 × 10^−5 cm/s	not substrates of either BCRP or P-glycoprotein	–	6 ± 2 × 10^−5 cm/s	not substrates of either BCRP or P-glycoprotein	2–4 ×	r (transport efflux ratio) (P-glycoprotein): 0.5 ± 0.4; tmax [1, 8]: 0.5 h; AUC [1, 9]: 173 µg·min/mL; t1/2 [1, 9]: 0.617 h; Cmax ([1]; oral, administered as individual cannabinoid, doses mg/kg: CBD 25, THC 15, THCA 50): 2094 ± 74 ng/mL; AUC [1, 10]: 44 µg·min/mL; t1/2 [1, 10]: 0.767 h; tmax [1, 10]: 0.75 h; Cmax ([1]; oral, administered in full-spectrum extract, doses mg/kg: CBD 25, THC 15, THCA 50): 465 ± 64 ng/mL
